Results from patent publication US20260174671A1, “COMPOSITION FOR ALLEVIATING OR PREVENTING SYMPTOMS OF ALLERGIC RHINITIS OR ALLERGIC CONJUNCTIVITIS” (Nissui Corporation, priority 2022, published 2026).

Experiments:
[1] = test system: adult males and females who had experienced nasal and/or eye discomfort due to pollen; assay: Severity classification of allergic rhinitis symptoms, placebo-controlled intake test during the pollen season; format: in vivo, human
Text: The severity classification of allergic rhinitis symptoms refers to a method of classifying the severity based on Practical Guideline for the Management of Allergic Rhinitis in Japan 2020 (Committee of the Practical Guideline for the Management of Allergic Rhinitis). Specifically, each evening, the subject himself/herself selects the one that best describes the severity of the day on the subjective symptoms on each item listed in the table below.
The subjects were adult males and females who had experienced nasal and/or eye discomfort due to pollen for the past 2 years.
The remaining 36 subjects were randomized and divided into a DGLA administration group (intervention group; hereinafter referred to as DGLA group) with 18 subjects and a placebo administration group (control group; hereinafter referred to as placebo group) with 18 subjects. 3 subjects in the placebo group became untraceable during the testing. Therefore, the analysis was performed on 18 subjects in the DGLA group and 15 subjects in the placebo group.
The DGLA group: DGLA-containing oil (DGLA of 31.4% by weight) was taken at 1,000 mg/day for 15 weeks. The DGLA of 314 mg/day is to be taken in terms of free fatty acid. The DGLA-containing oil was obtained by the method described in Japanese Patent No. 3354581. Specifically, to 200 g of dry cells of a filamentous fungus (Mortierella alpina), 500 mL of hexane was added, the mixture was stirred, and the filtration was repeated three times to extract oil, and then the hexane layer was evaporated to obtain DGLA-containing oil. The subjects took 4 capsules filled with this oil per day.
The intake duration of the diet for testing was 15 weeks from January 8th to Apr. 23, 2022. […]
(§1) The mean±SD of the change in score from the start of the testing was calculated for each group at each time point, and statistical analysis was conducted. […]

[2] = test system: adult males and females who had experienced nasal and/or eye discomfort due to pollen; assay: Japanese Allergic Rhinitis Standard Quality of Life Questionnaire (JRQLQ), placebo-controlled intake test during the pollen season; format: in vivo, human
Text: The JRQLQ is a questionnaire created by Okuda et al. to assess the impact of allergic rhinitis on quality of life (QOL) (Minoru Okuda et al.: Japanese Rhino-conjunctivitis Quality-of-Life Questionnaire (2002 edition), Committee of the Japanese Rhino-conjunctivitis Quality-of-Life Questionnaire, Allergy 2003; 52:21-56). […] In the JRQLQ, the subject himself/herself selects the one that best describes the severity of the worst nasal and eye symptoms the subject has experienced in the past 1-2 weeks on the items listed in the table below.
Also, as shown in Examples to be described later, the composition of the present invention can reduce the scores of nasal and eye symptoms in the JRQLQ, in particular, or suppress the increase of the score, compared to the placebo group. In the present invention, the phrase the “score of nasal and eye symptoms in the JRQLQ” means the sum of the scores of runny nose, sneezing, blocked nose, itchy nose, itchy eyes, and watery eyes in the JRQLQ. In a preferred embodiment of the present invention, the composition of the present invention can be used for reducing the scores of nasal and eye symptoms in the JRQLQ, or suppressing the increase of the score, compared to the placebo group. […]
as §1

[3] = test system: dermatitis model animals; settings: intake of DGLA; PTL 2; cited from earlier work
[4] = test system: atopic dermatitis model mice; settings: PTL 4, cited from earlier work
[5] = test system: splenocytes from the model mice; settings: PTL 4; cited from earlier work

SMILES: CCCCCC=CCC=CCC=CCCCCCCC(=O)O [DGLA, 8,11,14-eicosatrienoic acid]
- sneezing attack score in the severity classification of allergic rhinitis symptoms, change from the start of testing (week 0) ([1]; DGLA group (n=18) vs placebo group (n=15), DGLA-containing oil 1,000 mg/day (DGLA 314 mg/day) oral, 15 weeks, p<0.01, FIG. 1): significantly reduced
- nasal congestion score in the severity classification of allergic rhinitis symptoms, change from the start of testing (week 0) ([1]; DGLA group (n=18) vs placebo group (n=15), DGLA-containing oil 1,000 mg/day (DGLA 314 mg/day) oral, 15 weeks, p<0.05, FIG. 2): significantly reduced
- stratification analysis of the DGLA group, severity classification items (sneezing attack, nasal discharge, nasal congestion, itchy eyes, tearing) ([1]; Group H (score 1 or higher at week 0) vs Group L (score 0), no significant difference, P=0.249-0.712, FIGS. 4 to 8): all the mean values for the items of Group H were lower than those of Group L
- JRQLQ nasal and eye symptom score (sum of runny nose, sneezing, blocked nose, itchy nose, itchy eyes, watery eyes), change from week 0 ([2]; DGLA group (n=18) vs placebo group (n=15), DGLA-containing oil 1,000 mg/day (DGLA 314 mg/day) oral, 15 weeks, p<0.1, FIG. 3): tended to be reduced
- stratification analysis of the DGLA group, JRQLQ items (runny nose, sneezing, blocked nose, itchy nose, itchy eyes, watery eyes) ([2]; Group H (score 1 or higher at week 0) vs Group L (score 0), no significant difference, P=0.084-0.59, FIGS. 9 to 14): all the mean values for the items of Group H were lower than those of Group L
- dermatitis [3]: suppresses dermatitis

SMILES: CCCCC/C=C\C/C=C\C/C=C\CCCCC(=O)O [GLA, γ-linolenic acid]
- IgE production ([4]; orally administered for two months, atopic dermatitis-affected mice with hyper IgE-emia): suppression of IgE production was not observed
- IgE production in vitro [5]: suppressed IgE production

SMILES: CCCCC/C=C\C/C=C\C/C=C\CCCCC(=O)OCC [γ-linolenic acid (GLA) ethyl ester]
- hyper IgE production ([4]; oral administration, atopic dermatitis model mice): suppressed hyper IgE production
